What was measured:
Assay in all cases: relative viability (nuclei count vs DMSO), 5 days (fraction); higher = more cells survive
[1] = tested on: LK-2
In short: (§1)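 Five library-drug doses in √10 steps were combined with a fixed anchor-drug dose, or a single drug was given alone, by pin tool to lung cancer cell lines in 1536-well plates the day after seeding. Nuclei were stained and counted after 5 days. Relative viability is the nuclei count in treated wells over that in vehicle wells, taken as the median of duplicate plates.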

[2] = tested on: NCI-H520
In short: as §1

[3] = tested on: NCI-H1355
In short: as §1

[4] = tested on: LCLC-103H
In short: as §1

[5] = tested on: COR-L 105
In short: as §1

[6] = tested on: NCI-H1648
In short: as §1

[7] = tested on: NCI-H522
In short: as §1

[8] = tested on: A549
In short: as §1

Structure (SMILES): O=c1cc(N2CCOCC2)oc2c(-c3cccc4c3sc3ccccc34)cccc12 + Nc1ncn([C@H]2C[C@H](O)[C@@H](CO)O2)c(=O)n1 [Decitabine] (partner 2 µM)
- relative viability ([1]; first compound 0.01 µM): 0.355
- relative viability ([1]; first compound 0.03162 µM): 0.324
- relative viability ([1]; first compound 0.1 µM): 0.338
- relative viability ([1]; first compound 0.3162 µM): 0.278
- relative viability ([1]; first compound 1 µM): 0.285
- relative viability ([2]; first compound 0.01 µM): 0.59
- relative viability ([2]; first compound 0.03162 µM): 0.565
- relative viability ([2]; first compound 0.1 µM): 0.529
- relative viability ([2]; first compound 0.3162 µM): 0.557
- relative viability ([2]; first compound 1 µM): 0.525
- relative viability ([3]; first compound 0.01 µM): 0.377
- relative viability ([3]; first compound 0.03162 µM): 0.339
- relative viability ([3]; first compound 0.1 µM): 0.409
- relative viability ([3]; first compound 0.3162 µM): 0.351
- relative viability ([3]; first compound 1 µM): 0.352
- relative viability ([4]; first compound 0.01 µM): 0.807
- relative viability ([4]; first compound 0.03162 µM): 0.763
- relative viability ([4]; first compound 0.1 µM): 0.766
- relative viability ([4]; first compound 0.3162 µM): 0.77
- relative viability ([4]; first compound 1 µM): 0.686
- relative viability ([5]; first compound 0.01 µM): 0.622
- relative viability ([5]; first compound 0.03162 µM): 0.7
- relative viability ([5]; first compound 0.1 µM): 0.746
- relative viability ([5]; first compound 0.3162 µM): 0.769
- relative viability ([5]; first compound 1 µM): 0.667
- relative viability ([6]; first compound 0.03162 µM): 0.594
- relative viability ([6]; first compound 0.1 µM): 0.496
- relative viability ([6]; first compound 0.3162 µM): 0.466
- relative viability ([6]; first compound 1 µM): 0.458
- relative viability ([7]; first compound 0.01 µM): 0.709
- relative viability ([7]; first compound 0.03162 µM): 0.662
- relative viability ([7]; first compound 0.1 µM): 0.669
- relative viability ([7]; first compound 0.3162 µM): 0.649
- relative viability ([7]; first compound 1 µM): 0.696
- relative viability ([8]; first compound 0.01 µM): 0.26
- relative viability ([8]; first compound 0.03162 µM): 0.242
- relative viability ([8]; first compound 0.1 µM): 0.189
- relative viability ([8]; first compound 0.3162 µM): 0.246
- relative viability ([8]; first compound 1 µM): 0.288

From the supplement of paper PMC10307832
